Reference: US7498408B2, “Ryanodine receptor polypeptides” (E. I. du Pont de Nemours and Company, priority 2002, dated 2009)

Experiments:
[1] = biological target: T1, recombinant Drosophila melanogaster ryanodine receptor (expressed in Sf9 cells) (Drosophila melanogaster, UniProt Q24498); type: cell-based
T1 construct: His tag + attB1 + Lox footprint (N-terminal vector extension; present only if the Cre-Lox vector was the one used) (N); expressed in transfected cells
Source text: (§1) Several drops of a suspension of recombinant Spodoptera frugiperda cell line, Sf9, transiently expressing insect ryanodine receptors were placed on a poly-L-lysine-coated coverslip and allowed to attach. Cells were then rinsed in physiological saline having the following composition (mM): NaCl 130; KCl 5.4; MgCl2 1.2; CaCl2 1.0; NaHCO3 4.2; NaH2P04 7.3; Glucose 10; Sucrose 63; MES 20; pH 6.3. Cells were then bathed in physiological saline containing the calcium sensitive fluoroprobe, Fura-2 AM (2 μM), and Pluronic F127 (0.002%) for 30 min. Cells were rinsed in standard physiololgical saline for at least 15 min prior to testing. Testing was conducted in standard physiological saline, as the cell lines are devoid of functional voltage-gated calcium channels.
Cell-attached coverslips were placed in a sealed chamber with physiological saline continuously perfused across the cells using a peristaltic pump. Test compounds solubilized in physiological saline were applied by switching the perfusate source.
(§2) For studies involving the stable recombinant Spodoptera frugiperda cell line, Sf9, (other cell lines could also be used such as Sf21, S2, etc) expressing an insect ryanodine receptor from Drosophila melanogaster, or Heliothis virescens (alternatively receptors from other species such as Myzus persicae, Peregrinus maidis, Aphis gossypii, etc) were grown in T75 (or other appropriate sized) flasks in supplemented Grace's insect medium. Cells were maintained in an incubator at 22° C. until testing. Cells were suspension-loaded with the calcium sensitive fluoroprobe, Fura-2 AM (1-2 μM) and Pluronic F127 (0.002%) in culture medium for 30 minutes under agitation. Cells were then centrifuged and the pellet resuspended in physiological saline having the following composition (mM): NaCl 130; KCl 5.4; MgCl2 1.2; CaCl2 1.0; NaHCO3 4.2; NaH2P04 7.3; Glucose 10; Sucrose 63; MES 20; pH 6.3 at approximately 150,000-200,000 cells per well (96-well plate). After a 30 minute equilibration period the cell plate was tested using a Molecular Devices' FlexStation™ system with dual wavelength excitation (340 and 380 nm) and fluorescence emission measured at 510 nm. Test and control samples were added using integrated fluidics and the intracellular calcium monitored over a 2 minute period.

[2] = tested on: native cockroach ryanodine receptors (in embryonic neuronal cells); experiment: Calcium release assay, calcium imaging in primary embryonic cockroach neuronal cells; type: cell-based, Periplaneta americana
Source text: Embryonic neuronal cultures of the American cockroach Periplaneta americana were established, with minor modifications, following the method of Beadle and Lees (1988) (in Cell Culture Approaches to Invertebrate Neuroscience, Academic Press, New York, pp 123-127). Briefly, 26-27-day old oothecae were collected, surface-sterilized and cut open along a line one-third of the distance below the dorsal midline. The heads were removed and placed in Schneider's Drosophila medium (Invitrogen Life Technologies™, Carlsbad, Calif.). Using fine forceps 40 brains were individually removed and placed in a small glass vial containing 700 μl of ‘5+4’ medium (‘5+4’ medium contained 5 parts Schneider's Drosophila medium plus 4 parts roach Basal Medium Eagle, with Earle's salts (BME, Sigma™, St. Louis, Mo.). Roach BME (with Earle's salts) contained 5 parts Hepes (1 M), 1 part penicillin/streptomycin and 44 parts BME (with Earle's salts). ‘5+4’ medium was made fresh and sterile filtered (0.2 μm filter) just prior to use). The brains were dissociated by sequential trituration as follows: 1) brains were passed through a standard Pasteur pipette 10 times; 2) the resulting tissue suspension was passed an additional 5 times through a Pasteur pipet with tip flamed to about half of its original diameter; 3) a final 5 passes were performed using a Pasteur pipet with tip flamed to slightly less than half of its original diameter. A repeat pipettor was used to dispense a 5 μl volume of the resulting suspension into the center of each well of a 96-well, glass-bottom plate previously coated with poly-L-lysine (0.2 mg/ml solution). Cells attached to the bottom of the wells during a 50 min incubation at 27-29° C. 150 ul of a 1:1 mixture of Leibovitz's L-15 medium and Yunker's modified Grace's medium was added, and plates were maintained in a humid incubator at 27-29° C. until use. After cells were allowed to attach wells were filled with a 1:1 mixture of Leibovitz's L-15 medium and Yunker's modified Grace's medium (Leibovitz's L-15 and Grace's medium were obtained from Invitrogen Life Technologies™, Carlsbad, Calif. and Yunker's modified Grace's medium was made with Grace's medium modified by addition of 5 mg L-methionine, 10 mg L-alanine, 182 mg MgCl26H20, 1 g Albumin Fraction V, 7 ml Fetal bovine serum, 10 ml Chick embryo extract, 2 ml Penicillin/Streptomycin, and 2 mg 20-hydroxyecdysone (prepared in ethanol prior to addition) to a final volume of 100 ml and sterile filtered (0.2 μm filter)). Cells were maintained in a high humidity incubator at 29° C. until testing.
Cells were rinsed in standard physiological saline having the following composition (mM): NaCl 190; CaCl2 9; KCl 3.1; probenicid 1; Tris buffer 10; pH 7.2. Cells were then bathed in standard physiological saline containing the calcium sensitive fluoroprobe Fluo4 AM (2 μM) and Pluronic F127 (0.002%) for 45 min. Cells were then rinsed in standard physiological saline for at least 15 min prior to testing. Within the hour prior to testing, standard physiological saline was replaced with standard physiological saline containing the organic cation channel blocker pimozide (10 μM), to inhibit influx of external calcium through voltage-gated calcium channels. The 96-well plate was placed on a PriorTm motorized stage mounted onto a Nikon Diaphot microscope and imaged using a 20× Fluor objective (NA 0.75). Individual wells from the 96-well plate were sequentially excited with light at 495 nm, and the emitted fluorescence at 530 nm was detected using a Hamamatsu ORCA ER digital camera with 2 pixel binning (image size 672×512 pixels).
Acquisition control, image processing and image analysis were conducted using Universal Imaging Corporation's MetaMorph™ imaging software (Universal Imaging, West Chester, Pa.). A series of 3 “control” images were acquired for each well. Experimental compounds were added followed by acquisition of 4 “experimental” images for each well. […]

[3] = biological target: cockroach ryanodine receptor (roach femoral muscle membranes) (Periplaneta americana, UniProt Z9HFG3YSF4); experiment: Radioligand displacement ([3H]-GN analog Cpd 1) from roach femoral muscle membranes; conditions: read-out: Displacement IC50 (nM) P. americana; displacement of [3H]-Cpd 1, roach muscle membranes, 60 min at 32° C.
Method: Mid and hind legs from 6-9 week old cockroaches were excised and immediately placed in liquid nitrogen. Excised legs could be stored at −80° C. for several months, if necessary, prior to further fractionation. Typically, membrane preparations started with approximately 55 g (wet weight) of excised legs. All subsequent steps were carried out at 4° C.
The legs were homogenized on ice using a Polytron (Brinkmann Instruments, Westbury, N.Y.) for 2 min at Setting #3. In order to remove all fragments of cuticle, the homogenate was first passed through two layers of cheesecloth and then through one layer of glass wool overlaid on two layers of cheesecloth. On occasion, the cheesecloth clogged with particulates prior to passing all material through. In such cases, fresh cheesecloth (and glass wool) was used for the remainder of the suspension. […] The supernatant was collected and centrifuged for 30 min at 30,000×gmax. The resulting pellet was resuspended in buffer A (1.5 M KCl, 0.3 M sucrose, 0.5 mM CaCl2, 20 mM Tris-HCl, pH 8.0). The membrane suspension was homogenized by hand (about 25 strokes) using a glass-teflon homogenizer. […] Subsequently, the membrane suspension was adjusted to 4 μg protein/μg by addition of buffer A and then stored in 1 ml aliquots at −80° C.
The assay was begun by addition of 25 μl of roach muscle membranes at 2 μg/μl (prepared by thawing and addition of an equal volume of buffer B), and incubation was carried out for 60 min at 32° C. Assays were carried out in triplicate.
The compound was allowed to pre-incubate with the membranes for 10 min at 32° C. […] Assays were carried out in triplicate.
Following incubation, assays were quenched with ice-cold buffer B and immediately filtered on pre-wefted Unifilter 96 GF/B filter microplates using a Unifilter 96 Harvester (PerkinElmer™, Boston, Mass.). Each assay well was then washed 10 times with buffer B, and collected on the same filter microplate. The filter microplates were then placed in a vacuum oven at 32° C. for 3 h, following which 50 μl of Microscint 0 (PerkinElmer™, Boston, Mass.) was added to each well. Plates were then heat sealed and counted using a Topcount microplate scintillation counter (PerkinElmer™, Boston, Mass.).

[4] = tested on: control Sf9 cells without DNA / wild type Sf9; experiment: Calcium response in control or wild-type Sf9 cells lacking recombinant receptor; type: cell-based, Spodoptera frugiperda; conditions: caffeine 10 mM; Compound 5 3 μM
Source text: as §1
(§3) Imaging studies were conducted using a Nikon Diaphot microscope with a 40× oil immersion objective (NA 1.3) Image acquisition and processing was performed using the MetaFluor™ imaging system from Universal Imaging Corporation (West Chester, Pa.) Calcium calibration was carried out using the Grynkiewicz equation with a dissociation constant (Kd) of 145 nM for Fura-2 (Grynkiewicz et al., 1985). Cell-attached coverslips were placed in a sealed chamber with physiological saline continuously perfused across the cells using a peristaltic pump. Test compounds solubilized in physiological saline were applied by switching the perfusate source.
as §2

[5] = tested on: recombinant Heliothis virescens ryanodine receptor (expressed in Sf9 cells); experiment: Calcium release assay in Sf9 cells expressing recombinant Heliothis virescens ryanodine receptor; type: cell-based; conditions: 72 hr post-transfection; caffeine 10 mM; Cpd 5 3 μM
Source text: as §1, §3, §2

Q: For `Cc1cccc(C(=O)NC(C)C)c1NC(=O)c1cc(C(F)(F)F)nn1-c1ncccc1Cl` [Cpd 5, 1-(3-Chloro-2-pyridinyl)-N-[2-methyl-6-[[(1-methylethyl)amino]carbonyl]phenyl]-3-(trifluoromethyl)-1H-pyrazole-5-carboxamide], which “Calcium Release Threshold (nM) D. melanogaster” value [1] is on record?
A: <300 nM

Q: And the “Calcium Release Threshold (nM) P. americana” value [2]?
A: <300 nM

Q: What about the IC50 [3] of the same compound?
A: < 300 nM

Q: And the “calcium responses in control cells without DNA (FIG. 4)” value [4]?
A: No significant calcium responses

Q: What about the “cytosolic [Ca2+], Sf9 transiently expressing H. virescens ryanodine receptor (FIG. 4)” value [5] of the same compound?
A: increase in cytosolic [Ca^2+]
